Laboratory results from ChEMBL document CHEMBL1201862, “PubChem BioAssay data set” (2004).
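These data come from cells grown in 96-well plates and exposed to compound for 48 hours at five concentrations. GI50 = concentration required for 50% inhibition of growth.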 Activity calls are given as the source filed them. Cut-off read from the data, not from the text of the source: active = GI50 up to about 1.1 µM and inactive = higher.

Columns and labels:
Assay in all cases: NCI tumour cell line growth inhibition, 48 h
786-0 = test system: 786-0
A498 = test system: A498
A549 = test system: A549
ACHN = test system: ACHN
CCRF-CEM = test system: CCRF-CEM
COLO 205 = test system: COLO 205
DLD-1 = test system: DLD-1
DMS-114 = test system: DMS-114
DMS-273 = test system: DMS-273
EKVX = test system: EKVX
HCC 2998 = test system: HCC 2998
HCT-116 = test system: HCT-116
HCT-15 = test system: HCT-15
HL-60 = test system: HL-60
HOP-18 = test system: HOP-18
HOP-62 = test system: HOP-62
HOP-92 = test system: HOP-92
HT-29 = test system: HT-29
IGROV-1 = test system: IGROV-1
K562 = test system: K562
KM-20L2 = test system: KM-20L2
KM12 = test system: KM12
LOX IMVI = test system: LOX IMVI
LXFL 529 = test system: LXFL 529
M14 = test system: M14
M19-MEL = test system: M19-MEL
MOLT-4 = test system: MOLT-4
Malme-3M = test system: Malme-3M
NCI-H226 = test system: NCI-H226
NCI-H23 = test system: NCI-H23
NCI-H460 = test system: NCI-H460
NCI-H522 = test system: NCI-H522
OVCAR-3 = test system: OVCAR-3
OVCAR-4 = test system: OVCAR-4
OVCAR-5 = test system: OVCAR-5
OVCAR-8 = test system: OVCAR-8
RPMI-8226 = test system: RPMI-8226
RXF 393 = test system: RXF 393
SF-268 = test system: SF-268
SF-295 = test system: SF-295
SF-539 = test system: SF-539
SK-MEL-28 = test system: SK-MEL-28
SK-MEL-2 = test system: SK-MEL-2
SK-MEL-5 = test system: SK-MEL-5
SK-OV-3 = test system: SK-OV-3
SN12C = test system: SN12C
SNB-75 = test system: SNB-75
SNB-78 = test system: SNB-78
SR = test system: SR
SW-620 = test system: SW-620
TK-10 = test system: TK-10
U-251 = test system: U-251
UACC-257 = test system: UACC-257
UACC-62 = test system: UACC-62
UO-31 = test system: UO-31
SNB-19 = test system: SNB-19
XF498 = test system: XF498

Measured: GI50

O=C(CC/C(CC(=O)c1ccc(Br)cc1)=N\O)Nc1ccc(Cl)c(Cl)c1
86.7 µM: HCT-15
inactive: 786-0 > 100 µM | A498 36.3 µM | A549 > 100 µM | ACHN 65 µM | CCRF-CEM 37.6 µM | COLO 205 37.8 µM | DLD-1 > 100 µM | DMS-114 27.9 µM | DMS-273 82.8 µM | EKVX 29.3 µM | HCC 2998 > 100 µM | HCT-116 > 100 µM | HL-60 19.6 µM | HOP-18 60.5 µM | HOP-62 > 100 µM | HOP-92 68.2 µM | HT-29 43.5 µM | IGROV-1 60.7 µM | K562 25.4 µM | KM-20L2 > 100 µM | KM12 67.8 µM | LOX IMVI > 100 µM | LXFL 529 47.3 µM | M14 > 100 µM | M19-MEL 64.7 µM | MOLT-4 52.7 µM | Malme-3M > 100 µM | NCI-H226 > 100 µM | NCI-H23 > 100 µM | NCI-H460 > 100 µM | NCI-H522 20.5 µM | OVCAR-3 57.5 µM | OVCAR-4 64 µM | OVCAR-5 54.6 µM | OVCAR-8 > 100 µM | RPMI-8226 46.1 µM | RXF 393 29.2 µM | SF-268 > 100 µM | SF-295 > 100 µM | SF-539 > 100 µM | SK-MEL-28 > 100 µM | SK-MEL-2 > 100 µM | SK-MEL-5 29.8 µM | SK-OV-3 > 100 µM | SN12C > 100 µM | SNB-75 23.8 µM | SNB-78 > 100 µM | SR 40.3 µM | SW-620 45.2 µM | TK-10 18 µM | U-251 > 100 µM | UACC-257 44.4 µM | UACC-62 27.2 µM | UO-31 > 100 µM

CCOc1cccc2cccnc12
inactive: 786-0 > 100 µM | A549 > 100 µM | ACHN > 100 µM | CCRF-CEM > 100 µM | COLO 205 > 100 µM | DLD-1 > 100 µM | DMS-114 > 100 µM | EKVX > 100 µM | HCC 2998 > 100 µM | HCT-116 > 100 µM | HL-60 > 100 µM | HOP-18 57.5 µM | HOP-62 > 100 µM | HOP-92 > 100 µM | HT-29 > 100 µM | IGROV-1 > 100 µM | K562 > 100 µM | KM-20L2 > 100 µM | KM12 > 100 µM | LOX IMVI > 100 µM | LXFL 529 > 100 µM | M14 > 100 µM | MOLT-4 > 100 µM | Malme-3M > 100 µM | NCI-H226 > 100 µM | NCI-H23 > 100 µM | NCI-H460 > 100 µM | NCI-H522 > 100 µM | OVCAR-3 > 100 µM | OVCAR-4 > 100 µM | OVCAR-5 > 100 µM | OVCAR-8 > 100 µM | RPMI-8226 > 100 µM | RXF 393 > 100 µM | SF-268 > 100 µM | SF-295 > 100 µM | SF-539 > 100 µM | SK-MEL-28 > 100 µM | SK-MEL-5 > 100 µM | SK-OV-3 > 100 µM | SN12C > 100 µM | SNB-19 > 100 µM | SNB-75 > 100 µM | SW-620 > 100 µM | TK-10 > 100 µM | UACC-257 > 100 µM | UACC-62 > 100 µM | UO-31 > 100 µM | XF498 > 100 µM
